{
  "source": "patent US8338441B2",
  "about": "“Inhibitors of human immunodeficiency virus replication” (priority 2009, dated 2012)",
  "data": [
    {"tested_on": "HIV-1 NL4.3 strain", "experiment": "C8166 HIV-1 Luciferase Assay (EC50)", "assay_type": "cell-based", "conditions": "Human immunodeficiency virus 1, C8166, 72 h, read-out: Antiviral potency EC50", "text": "C8166 HIV-1 Luciferase Assay (EC50)\nC8166 cells are derived from a human T-lymphotrophic virus type 1 immortalized but nonexpressing line of cord blood lymphocytes (obtained from J. Sullivan and originally produced in the laboratory of R. Gallo, Virology 1983; 129: 51-64) and are highly permissive to HIV-1 infection. The pGL3 Basic LTR/TAR plasmid is made by introducing the HIV-1 HxB2 LTR sequence from nucleotide −138 to +80 (Sca1-HindIII) upstream of the luciferase gene in the pGL3 Basic Vector (a promoterless luciferase expression vector from Promega catalogue # E1751) with the gene for blasticidine resistance cloned in. The reporter cells are made by electroporating C8166 cells with pGL3 Basic LTR/TAR and selecting positive clones with blasticidine. Clone C8166-LTRIuc #A8-F5-G7 is selected by 3 consecutive rounds of limiting dilution under blasticidine selection. Cultures are maintained in complete media (consisting of: Roswell Park Memorial Institute medium (RPMI) 1640+10% FBS+10^−5 M β-mercaptoethanol+10 μg/ml gentamycin) with 5 μg/ml blasticidine, however, blasticidine selection is removed from the cells before performing the viral replication assay.\nLuciferase Assay Protocol\nSerial dilutions of HIV-1 inhibitor compounds are prepared in complete media from 10 mM DMSO stock solutions. Eleven serial dilutions of 2.5× are made at 8× desired final concentration in a 1 mL deep well titer plate (96 wells). The 12th well contains complete media with no inhibitor and serves as the positive control. All samples contain the same concentration of DMSO (≦0.1% DMSO). A 25 μL aliquot of inhibitor is added, to triplicate wells, of a 96 well tissue culture treated clear view black microtiter plate (Corning Costar catalogue # 3904). The total volume per well is 200 μL of media containing cells and inhibitor. The last row is reserved for uninfected C8166 LTRluc cells to serve as the background blank control and the first row is media alone.\nC8166 LTRluc cells are counted and placed in a minimal volume of complete RPMI 1640 in a tissue culture flask (ex. 30×10^6 cells in 10 mL media/25 cm^2 flask). Cells are infected with HIV-1 or virus with variant integrase generated as described below at a […] (moi) of 0.005. Cells are incubated for 1.5 hours at 37° C. on a rotating rack in a 5% CO2 incubator and re-suspended in complete RPMI to give a final concentration of 25,000-cells/175 μL. 175 μL of cell mix is added to wells of a 96 well microtiter plate containing 25 μL 8× inhibitors. 25,000 uninfected C8166-LTRluc cells/well in 200 μL complete RPMI are added to the last row for background control. Cells are incubated at 37° C. in 5% CO2 incubator for 3 days.\n50 μL Steady Glo (luciferase substrate T1/2=5 hours Promega catalogue # E2520) is added to each well of the 96 well plate. The relative light units (RLU) of luciferase is determined using the LUMIstar Galaxy luminometer (BMG LabTechnologies). Plates are read from the bottom for 2 seconds per well with a gain of 240.\nThe level of inhibition (% inhibition) of each well containing inhibitor is calculated as follows: […]\nThe calculated % inhibition values are used to determine EC50, slope factor (n) and maximum inhibition (Imax) by the non-linear regression routine NLIN procedure of SAS using the following equation: […]", "units": {"EC50": "nM"}, "values": [
      {"compound": "Cc1nc(-c2nc3ccccc3n2C2CC2)c(C)c(-c2ccc(Cl)cc2)c1[C@H](OC(C)(C)C)C(=O)O", "note": "[compound 1450]", "EC50": 7.7},
      {"compound": "Cc1nc(C(=O)NC2CCC(C)(C)CC2)c(C)c(-c2ccc(Cl)cc2F)c1[C@H](OC(C)(C)C)C(=O)O", "note": "[compound 1451]", "EC50": 1.7},
      {"compound": "Cc1nc(C(=O)NC2CCC3(CC2)CC3)c(C)c(-c2ccc(Cl)cc2F)c1[C@H](OC(C)(C)C)C(=O)O", "note": "[compound 1452]", "EC50": 5.7},
      {"compound": "COc1cc(C(=O)Nc2nc(C)c([C@H](OC(C)(C)C)C(=O)O)c(-c3ccc(Cl)cc3F)c2C)nc2ccccc12", "note": "[compound 1453]", "EC50": 2.1},
      {"compound": "Cc1nc(C(=O)N[C@H]2CC[C@H](C)CC2)c(C)c(-c2cccc(F)c2Cl)c1[C@H](OC(C)(C)C)C(=O)O", "note": "[compound 1454]", "EC50": 3.7},
      {"compound": "Cc1nc(C(=O)N[C@H]2CC[C@H](C)CC2)c(C)c(-c2ccccc2Cl)c1[C@H](OC(C)(C)C)C(=O)O", "note": "[compound 1455]", "EC50": 4},
      {"compound": "Cc1nc(C(=O)N[C@H]2CC[C@H](C)CC2)c(C)c(-c2ccc(Br)cc2)c1[C@H](OC(C)(C)C)C(=O)O", "note": "[compound 1456]", "EC50": 4.2},
      {"compound": "Cc1nc(C(=O)NC2CCC(C)(C)CC2)c(C)c(-c2ccc(Br)cc2)c1[C@H](OC(C)(C)C)C(=O)O", "note": "[compound 1457]", "EC50": 4},
      {"compound": "Cc1nc(C(=O)NC2CCC3(CC2)CC3)c(C)c(-c2ccc(Br)cc2)c1[C@H](OC(C)(C)C)C(=O)O", "note": "[compound 1458]", "EC50": 6.9},
      {"compound": "Cc1nc(C(=O)N[C@H]2CC[C@H](C)CC2)c(C)c(-c2ccc3c(c2)SCCO3)c1[C@H](OC(C)(C)C)C(=O)O", "note": "[compound 1459]", "EC50": 4},
      {"compound": "COc1cc(C(=O)Nc2nc(C)c([C@H](OC(C)(C)C)C(=O)O)c(-c3ccc(Cl)cc3)c2C)nc2ccccc12", "note": "[compound 1461]", "EC50": 2.5},
      {"compound": "COc1cc(Cl)ccc1C(=O)Nc1nc(C)c([C@H](OC(C)(C)C)C(=O)O)c(-c2ccc(Cl)cc2)c1C", "note": "[compound 1462]", "EC50": 1.2},
      {"compound": "Cc1nc(NC(=O)c2oc3ccccc3c2C)c(C)c(-c2ccc(Cl)cc2)c1[C@H](OC(C)(C)C)C(=O)O", "note": "[compound 1463]", "EC50": 2.1},
      {"compound": "Cc1nc(NC(=O)[C@H]2CC[C@H](C)CC2)c(C)c(-c2ccc(Cl)cc2)c1[C@H](OC(C)(C)C)C(=O)O", "note": "[compound 1464]", "EC50": 6.2},
      {"compound": "Cc1ccc(C(F)(F)F)c(C(=O)Nc2nc(C)c([C@H](OC(C)(C)C)C(=O)O)c(-c3ccc(Cl)cc3)c2C)c1", "note": "[compound 1465]", "EC50": 11},
      {"compound": "Cc1nc(NC(=O)c2ccc(Cl)c(F)c2)c(C)c(-c2ccc(Cl)cc2)c1[C@H](OC(C)(C)C)C(=O)O", "note": "[compound 1466]", "EC50": 4.9},
      {"compound": "COc1nc(C)ccc1C(=O)Nc1nc(C)c([C@H](OC(C)(C)C)C(=O)O)c(-c2ccc(Cl)cc2)c1C", "note": "[compound 1467]", "EC50": 4.3},
      {"compound": "Cc1nc(-c2nc3ccc(Cl)cn3c2C)c(C)c(-c2ccc(Cl)cc2)c1[C@H](OC(C)(C)C)C(=O)O", "note": "[compound 1469]", "EC50": 0.61},
      {"compound": "Cc1nc(C(=O)N2Cc3ccccc3C2)c(C)c(-c2ccc(Cl)cc2)c1[C@H](OC(C)(C)C)C(=O)O", "note": "[compound 1471]", "EC50": 2.4},
      {"compound": "COCc1nc(-c2ccc(C)c(C)c2)c(C)c(-c2ccc(Cl)cc2)c1[C@H](OC(C)(C)C)C(=O)O", "note": "[compound 2003]", "EC50": 17},
      {"compound": "Cc1noc(C)c1-c1ccc(-c2nc(C)c([C@H](OC(C)(C)C)C(=O)O)c(-c3ccc(Cl)cc3)c2C#N)cc1", "note": "[compound 2005]", "EC50": 19},
      {"compound": "CCC(C)(C)O[C@H](C(=O)O)c1c(C)nc(C(=O)N[C@H]2CC[C@H](C)CC2)c(C)c1-c1ccc(Cl)cc1", "note": "[compound 3005]", "EC50": 9.3},
      {"compound": "Cc1nc(C(=O)N[C@H]2CC[C@H](C)CC2)c(C)c(-c2ccc(Cl)cc2)c1[C@H](OC1(C)CCC1)C(=O)O", "note": "[compound 3009]", "EC50": 24},
      {"compound": "Cc1c(-c2ccc3c(c2)CCCO3)c([C@H](OC(C)(C)C)C(=O)O)c(C)n2cc(CC(C)(C)C)nc12", "note": "[compound 4002]", "EC50": 73},
      {"compound": "COC(=O)c1cnn2c(C)c([C@H](OC(C)(C)C)C(=O)O)c(-c3ccc4c(c3)CCCO4)c(C)c12", "note": "[compound 6001]", "EC50": 89}
    ]}
  ]
}
